# Test results: patent US20210063414A1, “METHODS FOR PREVENTING AND/OR TREATING BONE LOSS CONDITIONS BY MODULATING IRISIN” (Dana-Farber Cancer Institute, Inc., priority 2018, published 2021)
# Tests used:
# integrin αV/β5 = biological target: T1, integrin αV/β5 (Homo sapiens, UniProt P06756+P18084); experiment: FAK phosphorylation in HEK293T cells with forced expression of integrin αV/β5; assay type: cell-based
# T1 construct: expressed in transfected cells; host or cells: HEK293T
# Protocol: 100 nM irisin was incubated with 5 nM indicated his-tag integrins followed by immunoprecipitation using Ni-NTA agaroses. Precipitated integrins and co-precipitated irisin were analyzed by immunoblot analysis. […] HEK293T cells were seeded and incubated until 50% cell density. The cells were transfected with 0.1 μg plasmids of indicated integrins. After 48 hours, the cells were incubated with Freestyle293 medium for 3 hours and were treated with indicated concentration of irisin for 5 minutes. Cells were lysed to detect the indicated protein level using immunoblot analysis. […] MLO-Y4 cells were treated as described in FIG. 2D with addition of pretreatment of indicated antagonistic antibodies for 10 minutes. Cells were lysed to detect the indicated protein level using immunoblot analysis. […] MLO-Y4 cells were treated as described in FIG. 1B except with addition of the pretreatment of indicated antagonistic antibodies for 10 minutes. Sclerostin mRNA level was analyzed by qRT-PCR. Cyclophilin was used for house-keeping gene. […] The ribbon diagram is colored by HDX stabilization/destabilization. Percentages of deuterium differences are color-coded according to the smooth color gradient key at the bottom. Crystal structure of irisin dimer is from Protein Data Bank (PDB) (4 lsd) and a homology model of integrin β5 was built based on integrin β3 structure from PDB (4MMX).
# 100 nM irisin was incubated with 5 nM indicated his-tag integrins followed by immunoprecipitation using Ni-NTA agaroses. Precipitated integrins and co-precipitated irisin were analyzed by immunoblot analysis. […] HEK293T cells were seeded and incubated until 50% cell density. The cells were transfected with 0.1 μg plasmids of indicated integrins. After 48 hours, the cells were re-split to indicated dose of vitronectin-coated plates. Cells were incubated with culture medium for 3 hours. Cells were lysed to detect the indicated protein level using immunoblot analysis. FIG. 15C and FIG. 15D show the immunoblot data. Cells were treated and analyzed as FIG. 14B except using plasmids encoding integrin α5/β1 or integrin α11/β1 (FIG. 15C) integrin αV/β1(FIG. 15D).
# MLO-Y4 cells were treated and analyzed as described in FIG. 5A with addition of pretreatment of control RGD peptide, cyclo RGDyK (cRGDyK), or SB273005. […] HEK293 cells were treated and analyzed as described in FIG. 14B except the treatment of different dose of cyclo RGDyK. […] 8 weeks old male mice were treated and analyzed as described in FIG. 5D except the additional group with co-injection of 1 mg/kg SB273005. […]
# Cells were harvested in RIPA buffer containing protease-inhibitor cocktail and phosphataseinhibitor cocktail. […] Protein levels were analyzed via western blot using indicated antibody. […]
# [1] = system: primary inguinal fat cells; experiment: Ucp1 mRNA in primary inguinal fat cells; assay type: cell-based, mice; settings: 10 μM peptide
# Protocol: FIG. 18A-FIG. 18B show mRNA and protein levels of indicated genes. 1 mg/kg irisin was injected to 8-week old mice every other day for 6 days. mRNA levels of indicated genes in inguinal fat were analyzed by qRT-PCR. Cyclophilin was used for housekeeping gene (FIG. 18A). Inguinal fats were also lysed to detect the indicated protein level using immunoblot analysis (FIG. 18B). FIGS. 18C and 18D show mRNA and protein levels of indicated genes. Mice were treated and analyzed as (A-B) with addition of coinjection of […] control RGD peptide or cyclo RGDyK (cRGDyK). mRNA levels of indicated genes in inguinal fat were analyzed by qRT-PCR. Cyclophilin was used for house-keeping gene (FIG. 18C). Inguinal fats were also lysed to detect the indicated protein level using immunoblot analysis (FIG. 18D). […] Ucp1 mRNA level was analyzed by qRT-PCR. […]
# Inguinal fat tissue from 6 weeks old mice was dissected and washed with PBS, minced and digested for 1 hour at 37° C. in PBS containing 10 mM CaCl2, 2.4 U/ml dispase II (Roche) and 10 mg/ml collagenase D (Roche). […] After that, cells were maintained in 1 μM rosiglitazone in the presence of 0, 0.5, 5 or 50 ng/ml recombinant […] his-tag irisin protein for 4 days with medium change every other day. mRNA levels were analyzed as described in gene expression analysis. […]
# T1 sequence (P06756 31-889 limits assumed): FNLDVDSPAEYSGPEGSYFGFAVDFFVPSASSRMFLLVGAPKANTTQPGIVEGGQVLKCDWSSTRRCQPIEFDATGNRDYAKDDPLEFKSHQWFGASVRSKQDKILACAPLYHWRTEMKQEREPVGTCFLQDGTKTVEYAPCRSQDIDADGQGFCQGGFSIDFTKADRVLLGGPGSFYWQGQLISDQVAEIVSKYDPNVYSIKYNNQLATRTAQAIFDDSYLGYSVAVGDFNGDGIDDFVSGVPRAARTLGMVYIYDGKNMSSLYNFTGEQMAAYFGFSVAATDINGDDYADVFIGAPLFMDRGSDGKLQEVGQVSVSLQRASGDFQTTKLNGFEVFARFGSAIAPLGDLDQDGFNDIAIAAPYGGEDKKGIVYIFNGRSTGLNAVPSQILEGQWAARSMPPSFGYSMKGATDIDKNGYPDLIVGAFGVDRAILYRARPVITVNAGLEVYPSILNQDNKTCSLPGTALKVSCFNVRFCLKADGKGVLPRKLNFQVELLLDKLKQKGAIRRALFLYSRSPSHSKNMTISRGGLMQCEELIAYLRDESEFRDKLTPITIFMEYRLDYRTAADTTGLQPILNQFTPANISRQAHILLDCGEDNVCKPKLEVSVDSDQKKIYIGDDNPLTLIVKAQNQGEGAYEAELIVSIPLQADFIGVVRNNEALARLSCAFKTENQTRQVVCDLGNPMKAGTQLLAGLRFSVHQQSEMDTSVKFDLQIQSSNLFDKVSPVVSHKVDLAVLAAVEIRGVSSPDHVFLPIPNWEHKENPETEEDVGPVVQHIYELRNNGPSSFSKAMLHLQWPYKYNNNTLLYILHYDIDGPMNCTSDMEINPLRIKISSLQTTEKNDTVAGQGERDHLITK
# T1 sequence (P06756 891-1048 partner limits assumed): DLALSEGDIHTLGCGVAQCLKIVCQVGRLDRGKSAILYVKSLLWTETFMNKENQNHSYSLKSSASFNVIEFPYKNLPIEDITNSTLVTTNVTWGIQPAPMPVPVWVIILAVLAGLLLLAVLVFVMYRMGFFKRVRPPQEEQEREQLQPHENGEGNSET
# T1 sequence (P18084 24-799): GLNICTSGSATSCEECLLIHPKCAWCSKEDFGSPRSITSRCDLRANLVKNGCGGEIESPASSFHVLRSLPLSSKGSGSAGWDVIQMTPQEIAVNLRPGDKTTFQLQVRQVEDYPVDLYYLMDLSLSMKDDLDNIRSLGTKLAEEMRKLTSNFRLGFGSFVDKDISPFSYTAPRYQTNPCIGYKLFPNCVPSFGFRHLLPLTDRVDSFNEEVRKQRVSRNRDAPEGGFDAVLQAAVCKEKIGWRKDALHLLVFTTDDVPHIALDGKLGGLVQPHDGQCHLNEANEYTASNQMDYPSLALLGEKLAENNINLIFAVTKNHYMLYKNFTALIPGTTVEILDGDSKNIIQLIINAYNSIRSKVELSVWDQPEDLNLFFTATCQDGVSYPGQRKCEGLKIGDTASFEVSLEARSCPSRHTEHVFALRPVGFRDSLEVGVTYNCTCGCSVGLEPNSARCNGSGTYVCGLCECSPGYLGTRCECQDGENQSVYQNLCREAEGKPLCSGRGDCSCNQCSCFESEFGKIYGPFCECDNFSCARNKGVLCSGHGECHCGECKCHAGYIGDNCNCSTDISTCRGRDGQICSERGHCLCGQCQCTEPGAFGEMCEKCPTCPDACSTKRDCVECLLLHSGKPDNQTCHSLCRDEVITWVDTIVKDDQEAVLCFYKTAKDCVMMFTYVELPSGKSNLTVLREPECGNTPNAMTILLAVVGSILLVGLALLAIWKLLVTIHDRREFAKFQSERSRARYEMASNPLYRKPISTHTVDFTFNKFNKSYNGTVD
smiles,measurement,setting,value
N=C(N)NCCC[C@@H]1NC(=O)[C@H](CCCCN)NC(=O)[C@@H](Cc2ccc(O)cc2)NC(=O)[C@H](CC(=O)O)NC(=O)CNC1=O [cyclo RGDyK],effect on irisin-induced phosphorylation of FAK,"integrin αV/β5; HEK293T integrin αV/β5, 10 nM cyclo RGDyK",prevented phosphorylation of FAK significantly
same,effect on irisin-induced phosphorylation of FAK,"integrin αV/β5; HEK293T integrin αV/β5, 100 nM cyclo RGDyK",blocked the phosphorylation completely
same,IC50,"integrin αV/β5; HEK293T with forced expression of integrin αV/β5, in the presence of irisin, from immunoblot, read-out: IC50 for blocking irisin-integrin αV/β5 signaling (phosphorylation of FAK)",10 to 50 nM
same,effect on irisin-induced gene expression (Ucp1),[1],prevented irisin-induced gene expression
